Experiment: xn = mol fraction of the nth substance listed

CC(C)OCCO + CCCCCCCCO
viscosity [mPa·s], 101 kPa
Conditions	298.15 K	303.15 K	308.15 K
x1 = 0.0517	7.288	6.066	5.217
x1 = 0.1016	6.902	5.729	4.938
x1 = 0.1531	6.517	5.401	4.671
x1 = 0.2013	6.178	5.106	4.415
x1 = 0.2524	5.832	4.817	4.162
x1 = 0.3033	5.49	4.523	3.906
x1 = 0.4	4.893	4.027	3.482
x1 = 0.5012	4.314	3.556	3.086
x1 = 0.618	3.706	3.07	2.691
x1 = 0.7017	3.325	2.776	2.459
x1 = 0.8102	2.849	2.418	2.155
x1 = 0.8492	2.721	2.322	2.091
x1 = 0.9046	2.477	2.157	1.986
x1 = 0.9472	2.36	2.064	1.911

CCCCOCCO + CCCCCCCCO
viscosity [mPa·s], 101 kPa
Conditions	298.15 K	303.15 K	308.15 K
x1 = 0.6004	3.885	–	2.965
x1 = 0.8027	–	2.825	2.545

CC(C)OCCO + CCCCCCO
viscosity [mPa·s], 101 kPa
Conditions	298.15 K	303.15 K	308.15 K
x1 = 0.0533	4.409	3.75	3.294
x1 = 0.1018	4.192	3.555	3.096
x1 = 0.1512	3.993	3.38	2.917
x1 = 0.2013	3.789	3.2	2.752
x1 = 0.254	3.6	3.033	2.601
x1 = 0.3074	3.4	2.857	2.449
x1 = 0.4034	3.103	2.596	2.216
x1 = 0.5044	2.834	2.374	2.028
x1 = 0.6042	2.631	2.216	1.894
x1 = 0.7118	2.449	2.079	1.79
x1 = 0.8046	2.312	1.985	1.758
x1 = 0.8418	2.305	1.991	1.777
x1 = 0.9001	2.262	1.975	1.763
x1 = 0.953	2.226	1.952	1.771

CCCCCCCCN(CCCCCCCC)CCCCCCCC + CCCCCCO
Conditions	viscosity [mPa·s]
298 K, 101.3 kPa, x1 = 0.00638	4.722

CC(C)OCCO + CCCCCO
298.15 K, 101.33 kPa
Conditions	viscosity [mPa·s]
x1 = 0.0159	3.466
x1 = 0.0312	3.405
x1 = 0.0461	3.354
x1 = 0.0653	3.292
x1 = 0.0867	3.234
x1 = 0.1097	3.16
x1 = 0.137	3.099
x1 = 0.1627	3.029
x1 = 0.1931	2.952
x1 = 0.2267	2.881
x1 = 0.2585	2.819
x1 = 0.2966	2.748
x1 = 0.3417	2.677
x1 = 0.3843	2.61
x1 = 0.4446	2.526
x1 = 0.4848	2.473
x1 = 0.4956	2.461
x1 = 0.5246	2.432
x1 = 0.5561	2.397
x1 = 0.6012	2.357
x1 = 0.6643	2.297
x1 = 0.7168	2.261
x1 = 0.7741	2.218
x1 = 0.8198	2.191
x1 = 0.8573	2.167
x1 = 0.8964	2.142
x1 = 0.9259	2.133
x1 = 0.9558	2.116
x1 = 0.9775	2.11

O=C(Cc1ccccc1)Cc1ccccc1 + CCCCCOC(C)=O
298.15 K, 101 kPa
Conditions	viscosity [mPa·s]
x1 = 0.0269	0.8322
x1 = 0.0305	0.8358

Oc1cccc(Cl)c1 + CCCCCOC(C)=O
Conditions	viscosity [mPa·s]
298.15 K, 101 kPa, x1 = 0.5	1.244

CCCCCC(C)C + CCCCO
viscosity [mPa·s], 100 kPa
Conditions	x2 = 0.1005	x2 = 0.2014	x2 = 0.3002	x2 = 0.4	x2 = 0.5004	x2 = 0.6006	x2 = 0.7	x2 = 0.8001	x2 = 0.9
293.15 K	0.528	0.576	0.634	0.741	0.891	1.1	1.37	1.74	2.24
303.15 K	0.467	0.508	0.549	0.635	0.748	0.902	1.11	1.38	1.75
313.15 K	0.413	0.447	0.476	0.548	0.633	0.751	0.906	1.11	1.39
323.15 K	0.364	0.391	0.422	0.473	0.539	0.633	0.751	0.907	1.12
